# Key:
# Format in all cases: functional
# HOP-62 = test: Growth inhibition of human HOP62 cells assessed as cell growth at 10^-5 M incubated for 48 hrs by sulforhodamine B assay relative to control; conditions: HOP-62, 48 h, read-out: Activity
# SK-MEL-5 = test: Growth inhibition of human SK-MEL-5 cells assessed as cell growth at 10^-5 M incubated for 48 hrs by sulforhodamine B assay relative to control; conditions: SK-MEL-5, 48 h, read-out: Activity
# NCI-H460 = test: Growth inhibition of human NCI-H460 cells assessed as cell growth at 10^-5 M incubated for 48 hrs by sulforhodamine B assay relative to control; conditions: NCI-H460, 48 h, read-out: Activity
# MCF7 = test: Growth inhibition of human MCF7 cells assessed as cell growth at 10^-5 M incubated for 48 hrs by sulforhodamine B assay relative to control; conditions: MCF7, 48 h, read-out: Activity
# SF-268 = test: Growth inhibition of human SF268 cells assessed as cell growth at 10^-5 M incubated for 48 hrs by sulforhodamine B assay relative to control; conditions: SF-268, 48 h, read-out: Activity
# HCC 2998 = test: Growth inhibition of human HCC2998 cells assessed as cell growth at 10^-5 M incubated for 48 hrs by sulforhodamine B assay relative to control; conditions: HCC 2998, 48 h, read-out: Activity
# EKVX = test: Growth inhibition of human EKVX cells assessed as cell growth at 10^-5 M incubated for 48 hrs by sulforhodamine B assay relative to control; conditions: read-out: Activity
# SK-OV-3 = test: Growth inhibition of human SKOV3 cells assessed as cell growth at 10^-5 M incubated for 48 hrs by sulforhodamine B assay relative to control; conditions: SK-OV-3, 48 h, read-out: Activity
# NCI-H23 = test: Growth inhibition of human NCI-H23 cells assessed as cell growth at 10^-5 M incubated for 48 hrs by sulforhodamine B assay relative to control; conditions: NCI-H23, 48 h, read-out: Activity
# DU-145 = test: Growth inhibition of human DU145 cells assessed as cell growth at 10^-5 M incubated for 48 hrs by sulforhodamine B assay relative to control; conditions: DU-145, 48 h, read-out: Activity
# A549 = test: Growth inhibition of human A549/ATCC cells assessed as cell growth at 10^-5 M incubated for 48 hrs by sulforhodamine B assay relative to control; conditions: A549, 48 h, read-out: Activity
# OVCAR-5 = test: Growth inhibition of human OVCAR5 cells assessed as cell growth at 10^-5 M incubated for 48 hrs by sulforhodamine B assay relative to control; conditions: OVCAR-5, 48 h, read-out: Activity
# SK-MEL-28 = test: Growth inhibition of human SK-MEL-28 cells assessed as cell growth at 10^-5 M incubated for 48 hrs by sulforhodamine B assay relative to control; conditions: SK-MEL-28, 48 h, read-out: Activity
# RXF 393 = test: Growth inhibition of human RXF393 cells assessed as cell growth at 10^-5 M incubated for 48 hrs by sulforhodamine B assay relative to control; conditions: RXF 393, 48 h, read-out: Activity
# SF-295 = test: Growth inhibition of human SF295 cells assessed as cell growth at 10^-5 M incubated for 48 hrs by sulforhodamine B assay relative to control; conditions: SF-295, 48 h, read-out: Activity
# SK-MEL-2 = test: Growth inhibition of human SK-MEL-2 cells assessed as cell growth at 10^-5 M incubated for 48 hrs by sulforhodamine B assay relative to control; conditions: SK-MEL-2, 48 h, read-out: Activity
# UACC-62 = test: Growth inhibition of human UACC62 cells assessed as cell growth at 10^-5 M incubated for 48 hrs by sulforhodamine B assay relative to control; conditions: UACC-62, 48 h, read-out: Activity
# SF-539 = test: Growth inhibition of human SF539 cells assessed as cell growth at 10^-5 M incubated for 48 hrs by sulforhodamine B assay relative to control; conditions: SF-539, 48 h, read-out: Activity
# TK-10 = test: Growth inhibition of human TK10 cells assessed as cell growth at 10^-5 M incubated for 48 hrs by sulforhodamine B assay relative to control; conditions: TK-10, 48 h, read-out: Activity
# OVCAR-4 = test: Growth inhibition of human OVCAR4 cells assessed as cell growth at 10^-5 M incubated for 48 hrs by sulforhodamine B assay relative to control; conditions: OVCAR-4, 48 h, read-out: Activity
# LOX IMVI = test: Growth inhibition of human LOXIMVI cells assessed as cell growth at 10^-5 M incubated for 48 hrs by sulforhodamine B assay relative to control; conditions: read-out: Activity
# Hs-578T = test: Growth inhibition of human Hs 578T cells assessed as cell growth at 10^-5 M incubated for 48 hrs by sulforhodamine B assay relative to control; conditions: read-out: Activity
# T47D = test: Growth inhibition of human T47D cells assessed as cell growth at 10^-5 M incubated for 48 hrs by sulforhodamine B assay relative to control; conditions: read-out: Activity
# K562 = test: Growth inhibition of human K562 cells assessed as cell growth at 10^-5 M incubated for 48 hrs by sulforhodamine B assay relative to control; conditions: K562, 48 h, read-out: Activity
# UO-31 = test: Growth inhibition of human UO31 cells assessed as cell growth at 10^-5 M incubated for 48 hrs by sulforhodamine B assay relative to control; conditions: UO-31, 48 h, read-out: Activity
# HL-60(TB) = test: Growth inhibition of human HL-60(TB) cells assessed as cell growth at 10^-5 M incubated for 48 hrs by sulforhodamine B assay relative to control; conditions: HL-60, 48 h, read-out: Activity
# HOP-92 = test: Growth inhibition of human HOP92 cells assessed as cell growth at 10^-5 M incubated for 48 hrs by sulforhodamine B assay relative to control; conditions: HOP-92, 48 h, read-out: Activity
# CCRF-CEM = test: Growth inhibition of human CCRF-CEM cells assessed as cell growth at 10^-5 M incubated for 48 hrs by sulforhodamine B assay relative to control; conditions: read-out: Activity
# MDA-MB-231 = test: Growth inhibition of human MDA-MB-231 cells assessed as cell growth at 10^-5 M incubated for 48 hrs by sulforhodamine B assay relative to control; conditions: MDA-MB-231, 48 h, read-out: Activity
# NCI-H226 = test: Growth inhibition of human NCI-H226 cells assessed as cell growth at 10^-5 M incubated for 48 hrs by sulforhodamine B assay relative to control; conditions: NCI-H226, 48 h, read-out: Activity
# OVCAR-3 = test: Growth inhibition of human OVCAR3 cells assessed as cell growth at 10^-5 M incubated for 48 hrs by sulforhodamine B assay relative to control; conditions: OVCAR-3, 48 h, read-out: Activity
# SR = test: Growth inhibition of human SR cells assessed as cell growth at 10^-5 M incubated for 48 hrs by sulforhodamine B assay relative to control; conditions: read-out: Activity
Compound,growth at 10 µM (HOP-62) [%],growth at 10 µM (SK-MEL-5) [%],growth at 10 µM (NCI-H460) [%],growth at 10 µM (MCF7) [%],growth at 10 µM (SF-268) [%],growth at 10 µM (HCC 2998) [%],growth at 10 µM (EKVX) [%],growth at 10 µM (SK-OV-3) [%],growth at 10 µM (NCI-H23) [%],growth at 10 µM (DU-145) [%],growth at 10 µM (A549) [%],growth at 10 µM (OVCAR-5) [%],growth at 10 µM (SK-MEL-28) [%],growth at 10 µM (RXF 393) [%],growth at 10 µM (SF-295) [%],growth at 10 µM (SK-MEL-2) [%],growth at 10 µM (UACC-62) [%],growth at 10 µM (SF-539) [%],growth at 10 µM (TK-10) [%],growth at 10 µM (OVCAR-4) [%],also measured
c1ccc2[nH]c(-c3ccc(-c4nccc5c4[nH]c4ccccc45)cc3)nc2c1,2 to 86.1,16 to 62.6,42.9,17 to 30.4,52.2,19 to 74,13 to 81.2,22 to 104,18 to 69.1,19 to 67.4,21 to 45.7,,,,,,,,,,
O=Cc1ccc(C2NCCc3c2[nH]c2ccccc32)cc1 (stereo not given),86.3,93,100,91.9,101,104,89.6,88.2,87.1,110,94.7,100,109,99.6,101,94.8,81.2,103,115,97.4,growth at 10 µM (LOX IMVI): 88.6%; growth at 10 µM (Hs-578T): 90.5%; growth at 10 µM (T47D): 92.3%; growth at 10 µM (K562): 102%; growth at 10 µM (UO-31): 61.9%; growth at 10 µM (HL-60(TB)): 89.4%; growth at 10 µM (HOP-92): 87.2%; growth at 10 µM (CCRF-CEM): 99.3%; growth at 10 µM (MDA-MB-231): 72.1%; growth at 10 µM (NCI-H226): 78.2%; growth at 10 µM (OVCAR-3): 99.7%; growth at 10 µM (SR): 114%
c1ccc2c(c1)[nH]c1c(-c3ccc(-c4nccc5c4[nH]c4ccccc45)cc3)nccc12,82.7,79,103,88.4,105,102,89.5,88,77.7,122,115,110,110,111,105,95.6,105,109,105,105,growth at 10 µM (LOX IMVI): 89.4%; growth at 10 µM (Hs-578T): 97.7%; growth at 10 µM (T47D): 75.8%; growth at 10 µM (K562): 93.8%; growth at 10 µM (UO-31): 60.6%; growth at 10 µM (HL-60(TB)): 99.1%; growth at 10 µM (HOP-92): 98.7%; growth at 10 µM (CCRF-CEM): 106%; growth at 10 µM (MDA-MB-231): 111%; growth at 10 µM (NCI-H226): 90.7%; growth at 10 µM (OVCAR-3): 101%; growth at 10 µM (SR): 86%

# Source: ChEMBL document CHEMBL4004838, “Design and synthesis of novel phenyl -1, 4-beta-carboline-hybrid molecules as potential anticancer agents” (Eur J Med Chem, 2017)
